The record followed here is ChEMBL document CHEMBL1151628, “Antibacterial constituents of the diatom Navicula delognei” (1984).

The source made the active and inactive calls. No cut-off for these calls is given here.

For one assay, the system named is Enterobacter cloacae. As to the kind of experiment: Antimicrobial activity against Enterobacter cloacae ATCC 23355 at 0.1 mg/disk by disk diffusion assay. In kind it is functional. (Agar diffusion results depend on both activity and mobility in agar.)
The test system of assay [1] is Salmonella typhimurium. As to the kind of experiment: Antimicrobial activity against Salmonella Typhimurium ATCC 14028 at 0.1 mg/disk by disk diffusion assay. In kind it is functional, Salmonella enterica subsp. enterica serovar Typhimurium.
Assay [2] concerns Staphylococcus aureus. As to the kind of experiment: Antimicrobial activity against Staphylococcus aureus ATCC 25923 at 0.1 mg/disk by disk diffusion assay. It is filed as functional.
The subject of assay [3] is Staphylococcus epidermidis. As to the kind of experiment: Antimicrobial activity against Staphylococcus epidermidis ATCC 12228 at 0.1 mg/disk by disk diffusion assay. It is filed as functional.
A further assay has as its system Serratia marcescens. As to the kind of experiment: Antimicrobial activity against Serratia marcescens ATCC 8100 at 0.1 mg/disk by disk diffusion assay. It is filed as functional.
Assay [4] has as its system Proteus vulgaris. As to the kind of experiment: Antimicrobial activity against Proteus vulgaris ATCC 13315 at 0.5 mg/disk by disk diffusion assay. In kind it is functional.
In assay [5] the test system is Salmonella typhimurium. As to the kind of experiment: Antimicrobial activity against Salmonella Typhimurium ATCC 14028 at 0.5 mg/disk by disk diffusion assay. It is filed as functional, Salmonella enterica subsp. enterica serovar Typhimurium.
Assay [6] has as its system Staphylococcus aureus. As to the kind of experiment: Antimicrobial activity against Staphylococcus aureus ATCC 25923 at 0.5 mg/disk by disk diffusion assay. It is filed as functional.
In assay [7] the test system is Staphylococcus epidermidis. As to the kind of experiment: Antimicrobial activity against Staphylococcus epidermidis ATCC 12228 at 0.5 mg/disk by disk diffusion assay. It is filed as functional.
The subject of another assay is Escherichia coli. As to the kind of experiment: Antimicrobial activity against Escherichia coli ATCC 25922 at 0.5 mg/disk by disk diffusion assay. In kind it is functional, organism-based.
Another assay deals with Klebsiella pneumoniae. As to the kind of experiment: Antimicrobial activity against Klebsiella pneumoniae ATCC 13883 at 0.1 mg/disk by disk diffusion assay. In kind it is functional.
Assay [8] deals with Proteus vulgaris. As to the kind of experiment: Antimicrobial activity against Proteus vulgaris ATCC 13315 at 0.1 mg/disk by disk diffusion assay. It is filed as functional.

`CC1(C)S[C@@H]2[C@H](NC(=O)[C@H](N)c3ccccc3)C(=O)N2[C@H]1C(=O)O` [AMPICILLIN]: the “inhibition zone (IZ)” value (in the assay with Enterobacter cloacae; in the assay on Salmonella typhimurium [1]; with Staphylococcus aureus [2]; in assay [3]) was more than 4 mm each time.
`O=C(N[C@H](CO)[C@H](O)c1ccc([N+](=O)[O-])cc1)C(Cl)Cl` [CHLORAMPHENICOL]: the “inhibition zone (IZ)” value in the assay on Serratia marcescens is more than 4 mm.
For the molecule `CC/C=C\C/C=C\C/C=C\C/C=C\C/C=C\CCCC(=O)OC/C=C(\C)CCCC(C)CCCC(C)CCCC(C)C` (stereo unspecified), the result in the assay with Proteus vulgaris [4] was Active. Also, the results for the “inhibition zone (IZ)” value (in the assay with Salmonella typhimurium [5]; in the assay on Staphylococcus aureus [6]; in assay [7]) were more than 2 mm, more than 4 mm and more than 2 mm, respectively.
As for `CC/C=C\C/C=C\C/C=C\C/C=C\CCCCC(=O)O`, the result in the assay with Escherichia coli was Active. The “inhibition zone (IZ)” value (in the assay on Proteus vulgaris [4]; with Salmonella typhimurium [5]; with Staphylococcus aureus [6]; in [7]) was more than 2 mm throughout.
`C=CC/C=C\C/C=C\C/C=C\CCCCC(=O)O`: the result in the assay on Escherichia coli and in the assay on Proteus vulgaris [4] was Active. Also, the “inhibition zone (IZ)” value with Salmonella typhimurium [5] was more than 4 mm; in the assay on Staphylococcus aureus [6], more than 2 mm; in assay [7], more than 2 mm.
Regarding `CN(C)[C@@H]1C(O)=C(C(N)=O)C(=O)[C@@]2(O)C(O)=C3C(=O)c4c(O)cccc4[C@@](C)(O)[C@H]3C[C@@H]12` [TETRACYCLINE], the “inhibition zone (IZ)” value with Klebsiella pneumoniae and with Proteus vulgaris [8] was more than 4 mm throughout.
